Values of other authors, collected in US20120172333A1, “PYRROLO-PYRIDINE DERIVATIVES AS ACTIVATORS OF AMPK” (GLAXOSMITHKLINE LLC, priority 2009, published 2012).

Tested on: ob/ob and db/db mice
Settings: 8 day administration

Structure (SMILES): NC(=O)c1ncn([C@@H]2O[C@H](CO)[C@@H](O)[C@H]2O)c1N [AICAR]
- reduction of blood glucose: 35%
